Assay results published in US7622469B2, “2,4-diamino-1,3,5-triazine derivatives” (Hamari Chemicals, Ltd., priority 2002, dated 2009).

Key:
P. aeruginosa PAO-1 [1] = test: Antibacterial activity test (MIC); type: cell-based; conditions: Mueller-Hinton Broth, 37° C., 20 to 24 hours
Outline: (§1)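 Broth dilution MIC per the Japanese Society of Chemotherapy standard method in Mueller-Hinton Broth. Strains were grown statically at 37° C for 16 to 20 hours and diluted in sterile saline to 10^5/ml. Compounds were dissolved in methanol and serially diluted twofold in medium, giving 100 μg/ml and 2^n-fold (n=−10 to 1).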

P. aeruginosa No. 12 [2] = test: Antibacterial activity test (MIC); type: cell-based; conditions: Mueller-Hinton Broth, 37° C., 20 to 24 hours
Outline: as §1

P. aeruginosa KM 97-5 [3] = test: Antibacterial activity test (MIC); type: cell-based; conditions: Mueller-Hinton Broth, 37° C., 20 to 24 hours
Outline: as §1

S. aureus 209PJC [4] = test: Antibacterial activity test (MIC); type: cell-based; conditions: Mueller-Hinton Broth, 37° C., 20 to 24 hours
Outline: as §1

E. coli NIHJ JC-2 [5] = test: Antibacterial activity test (MIC); type: cell-based; conditions: Mueller-Hinton Broth, 37° C., 20 to 24 hours
Outline: as §1

VRE 49 [6] = test: Antibacterial activity test (MIC); type: cell-based, vancomycin-resistant enterococci; conditions: Mueller-Hinton Broth, 37° C., 20 to 24 hours
Description: Regarding compounds obtained in respective Working Examples, in order to investigate antibacterial activity, minimal inhibitory concentration (MIC) was determined according to a standard method of Japanese Society of Chemotherapy.
As a test bacterium, nine kinds of S. aureus 209PJC, MRSA 97-115, MRSA KM 97-53, MRSA KM97-108, VRE 49, E. coli NIHJ JC-2, P. aeruginosa PAO-1, P. aeruginosa No. 12, P. aeruginosa KM97-5 were used and, as a medium, Mueller-Hinton Broth (DIFCO) was used. One platinum loop of a test bacterium was inoculated into 20 ml of a medium, and static culture was carried out at 37° C. for 16 to 20 hours, and then each bacterium species was diluted with a sterilized physiological saline to 10^5/ml, which was used as a test bacterium solution.
Then, each compound was dissolved in methanol, subjected to ½ stepwise dilution with a medium to prepare a medium for measuring sensitivity, and each 2 ml was dispensed into a test tube. A compound concentration in a medium was adjusted to 100 μg/ml and its 2^n-fold (n=−10 to 1).
Numerical values in Tables represent MIC expressed in μg/ml unit.

MRSA KM 97-53 [7] = test: Antibacterial activity test (MIC); type: cell-based, methicillin-resistant Staphylococcus aureus; conditions: Mueller-Hinton Broth, 37° C., 20 to 24 hours
Outline: as §1

MRSA 97-115 [8] = test: Antibacterial activity test (MIC); type: cell-based, methicillin-resistant Staphylococcus aureus; conditions: Mueller-Hinton Broth, 37° C., 20 to 24 hours
Outline: as §1

MRSA KM 97-108 [9] = test: Antibacterial activity test (MIC); type: cell-based, methicillin-resistant Staphylococcus aureus; conditions: Mueller-Hinton Broth, 37° C., 20 to 24 hours
Outline: as §1

VRE 49 [10] = test: Bactericidal activity test (MBC, phenol coefficient measuring method); type: cell-based, vancomycin-resistant enterococci
Description: As a test bacterium, the same bacteria species as those of the antibacterial activity test were used; as a medium to be used, a SCD medium (manufactured by Eiken Chemical Co., Ltd.) was used for pre-culture medium; and a heart infusion bouillon medium (manufactured by Eiken Chemical Co., Ltd.) was used as a medium for growing a live bacterium in a test solution after bactericidal treatment. One platinum loop of a test bacterium was inoculated into 20 ml of a medium, and static culture was carried out at 37° C. for 18 to 20 hours, and the cells were adjusted with a sterilized physiological saline to 1×10^7/ml, which was used as a test bacterium solution.
Then, a solution of each compound in methanol was subjected to ½ stepwise dilution with sterilized water, each 5 ml was dispensed into a test tube, 0.5 ml of the previously prepared test bacterium solution was added thereto, and the mixture was blended well. After 1 minute, 3 minutes and 5 minutes has passed, 5 μl of the test solution was collected and inoculated into 2 ml of a heart infusion bouillon medium, this was cultured at 37° C. for 40 to 48 hours, and the presence or absence of growth of a bacterium was determined. A test was performed three times, a minimum concentration at which growth of a bacterium was not recognized two or more times was adopted as a minimal bactericidal concentration (MBC value).
Numerical values in Tables represent MBC expressed in μg/ml unit.

P. aeruginosa PAO-1 [11] = test: as above; type: cell-based
Outline: (§2)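 Read-out is growth versus no growth after subculture (heart infusion bouillon, 37° C, 40–48 h) of samples taken 1, 3 and 5 min into exposure of 1×10^7/ml bacteria to halved compound dilutions. Triplicate tests; MBC in μg/ml.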

P. aeruginosa No. 12 [12] = test: as above; type: cell-based
Outline: as §2

P. aeruginosa KM 97-5 [13] = test: as above; type: cell-based
Outline: as §2

S. aureus 209PJC [14] = test: as above; type: cell-based
Outline: as §2

E. coli NIHJ JC-2 [15] = test: as above; type: cell-based
Outline: as §2

MRSA KM 97-53 [16] = test: as above; type: cell-based, methicillin-resistant Staphylococcus aureus
Outline: as §2

MRSA 97-115 [17] = test: as above; type: cell-based, methicillin-resistant Staphylococcus aureus
Outline: as §2

MRSA KM 97-108 [18] = test: as above; type: cell-based, methicillin-resistant Staphylococcus aureus
Outline: as §2

| SMILES | minimal inhibitory concentration (MIC) (P. aeruginosa PAO-1 [1]) [µg/mL] | minimal inhibitory concentration (MIC) (P. aeruginosa No. 12 [2]) [µg/mL] | minimal inhibitory concentration (MIC) (P. aeruginosa KM 97-5 [3]) [µg/mL] | minimal inhibitory concentration (MIC) (S. aureus 209PJC [4]) [µg/mL] | minimal inhibitory concentration (MIC) (E. coli NIHJ JC-2 [5]) [µg/mL] | minimal inhibitory concentration (MIC) (VRE 49 [6]) [µg/mL] | minimal inhibitory concentration (MIC) (MRSA KM 97-53 [7]) [µg/mL] | minimal inhibitory concentration (MIC) (MRSA 97-115 [8]) [µg/mL] | minimal inhibitory concentration (MIC) (MRSA KM 97-108 [9]) [µg/mL] | minimal bactericidal concentration (MBC) (VRE 49 [10]; 1 min) [µg/mL] | minimal bactericidal concentration (MBC) (VRE 49 [10]; 3 min) [µg/mL] | minimal bactericidal concentration (MBC) (VRE 49 [10]; 5 min) [µg/mL] | minimal bactericidal concentration (MBC) (P. aeruginosa PAO-1 [11]; 1 min) [µg/mL] | minimal bactericidal concentration (MBC) (P. aeruginosa PAO-1 [11]; 3 min) [µg/mL] | minimal bactericidal concentration (MBC) (P. aeruginosa PAO-1 [11]; 5 min) [µg/mL] | minimal bactericidal concentration (MBC) (P. aeruginosa No. 12 [12]; 1 min) [µg/mL] | minimal bactericidal concentration (MBC) (P. aeruginosa No. 12 [12]; 3 min) [µg/mL] | minimal bactericidal concentration (MBC) (P. aeruginosa No. 12 [12]; 5 min) [µg/mL] | minimal bactericidal concentration (MBC) (P. aeruginosa KM 97-5 [13]; 1 min) [µg/mL] | minimal bactericidal concentration (MBC) (P. aeruginosa KM 97-5 [13]; 3 min) [µg/mL] | other results |
| --- | --- | --- | --- | --- | --- | --- | --- | --- | --- | --- | --- | --- | --- | --- | --- | --- | --- | --- | --- | --- | --- |
| CC(=O)O.CCCCCCCCNC1=NC(C)(C)N=C(NCc2ccc(C)cc2)N1 [compound 58] | 12.5 | 25 | 25 | 0.4 | 12.5 | 1.6 | 1.6 | 0.4 | 1.6 | 25 | 25 | 12.5 | 12.5 | 6.3 | 3.1 | 6.3 | 6.3 | 3.1 | 6.3 | 3.1 | minimal bactericidal concentration (MBC) (P. aeruginosa KM 97-5 [13]; 5 min): 3.1 µg/mL; minimal bactericidal concentration (MBC) (S. aureus 209PJC [14]; 1 min): 6.3 µg/mL; minimal bactericidal concentration (MBC) (S. aureus 209PJC [14]; 3 min): 3.1 µg/mL; minimal bactericidal concentration (MBC) (S. aureus 209PJC [14]; 5 min): 3.1 µg/mL; minimal bactericidal concentration (MBC) (E. coli NIHJ JC-2 [15]; 1 min): 12.5 µg/mL; minimal bactericidal concentration (MBC) (E. coli NIHJ JC-2 [15]; 3 min): 6.3 µg/mL; minimal bactericidal concentration (MBC) (E. coli NIHJ JC-2 [15]; 5 min): 6.3 µg/mL; minimal bactericidal concentration (MBC) (MRSA KM 97-53 [16]; 1 min): 50 µg/mL; minimal bactericidal concentration (MBC) (MRSA KM 97-53 [16]; 3 min): 50 µg/mL; minimal bactericidal concentration (MBC) (MRSA KM 97-53 [16]; 5 min): 25 µg/mL; minimal bactericidal concentration (MBC) (MRSA 97-115 [17]; 1 min): 25 µg/mL; minimal bactericidal concentration (MBC) (MRSA 97-115 [17]; 3 min): 25 µg/mL; minimal bactericidal concentration (MBC) (MRSA 97-115 [17]; 5 min): 12.5 µg/mL; minimal bactericidal concentration (MBC) (MRSA KM 97-108 [18]; 1 min): 50 µg/mL; minimal bactericidal concentration (MBC) (MRSA KM 97-108 [18]; 3 min): 50 µg/mL; minimal bactericidal concentration (MBC) (MRSA KM 97-108 [18]; 5 min): 25 µg/mL |
| CC(=O)O.CCCCCCCCNC1=NC(C)(C)N=C(NCCCCCC)N1 [compound 68] | 50 | 50 | 50 | 0.8 | 12.5 | 1.6 | 1.6 | 0.8 | 1.6 | 25 | 25 | 12.5 | 6.3 | 3.1 | 1.6 | 3.1 | 3.1 | 1.6 | 12.5 | 6.3 | minimal bactericidal concentration (MBC) (P. aeruginosa KM 97-5 [13]; 5 min): 6.3 µg/mL; minimal bactericidal concentration (MBC) (S. aureus 209PJC [14]; 1 min): 12.5 µg/mL; minimal bactericidal concentration (MBC) (S. aureus 209PJC [14]; 3 min): 6.3 µg/mL; minimal bactericidal concentration (MBC) (S. aureus 209PJC [14]; 5 min): 6.3 µg/mL; minimal bactericidal concentration (MBC) (E. coli NIHJ JC-2 [15]; 1 min): 12.5 µg/mL; minimal bactericidal concentration (MBC) (E. coli NIHJ JC-2 [15]; 3 min): 6.3 µg/mL; minimal bactericidal concentration (MBC) (E. coli NIHJ JC-2 [15]; 5 min): 6.3 µg/mL; minimal bactericidal concentration (MBC) (MRSA KM 97-53 [16]; 1 min): 50 µg/mL; minimal bactericidal concentration (MBC) (MRSA KM 97-53 [16]; 3 min): 25 µg/mL; minimal bactericidal concentration (MBC) (MRSA KM 97-53 [16]; 5 min): 25 µg/mL; minimal bactericidal concentration (MBC) (MRSA 97-115 [17]; 1 min): 12.5 µg/mL; minimal bactericidal concentration (MBC) (MRSA 97-115 [17]; 3 min): 6.3 µg/mL; minimal bactericidal concentration (MBC) (MRSA 97-115 [17]; 5 min): 6.3 µg/mL; minimal bactericidal concentration (MBC) (MRSA KM 97-108 [18]; 1 min): 50 µg/mL; minimal bactericidal concentration (MBC) (MRSA KM 97-108 [18]; 3 min): 25 µg/mL; minimal bactericidal concentration (MBC) (MRSA KM 97-108 [18]; 5 min): 25 µg/mL |
